Data: patent US7767814B2, “Substituted piperidine compounds and methods of their use” (Adolor Corporation, priority 2004, dated 2010)

Tests used:
[1] = target: T1, cloned human μ opioid receptor (Homo sapiens, UniProt P35372); experiment: [3H]diprenorphine receptor binding, cloned human μ opioid receptor
T1 construct: expressed in transfected cells; membranes used
Protocol: IC50 values were obtained by nonlinear analysis of the data using GraphPad Prism version 3.00 for Windows (GraphPad Software, San Diego). Ki values were obtained by Cheng-Prusoff corrections of IC50 values.
After dilution in buffer A and homogenization as before, membrane proteins (10-80 μg) in 250 μL were added to mixtures containing test compound and [^3H]diprenorphine (0.5 to 1.0 nM, 40,000 to 50,000 dpm) in 250 μL of buffer A in 96-well deep-well polystyrene titer plates (Beckman). […] The filters were rinsed 4 times with 1 mL of cold 50 mM Tris HCl, pH 7.8 and radioactivity remaining on the filters determined by scintillation spectroscopy. Nonspecific binding was determined by the minimum values of the titration curves and was confirmed by separate assay wells containing 10 μM naloxone.
To determine the equilibrium dissociation constant for the inhibitors (Ki), radioligand bound (cpm) in the presence of various concentrations of test compounds was measured. The concentration to give half-maximal inhibition (EC50) of radioligand binding was determined from a best nonlinear regression fit to the following equation, […]

[2] = target: cloned human κ opioid receptor (Homo sapiens, UniProt P41145); conditions: cloned human opioid receptors; background statement; read-out: Ki, inhibition of [3H]diprenorphine binding, κ receptor; cited from earlier work
[3] = target: cloned human δ opioid receptor (Homo sapiens, UniProt P41143); conditions: cloned human opioid receptors; background statement; read-out: Ki, inhibition of [3H]diprenorphine binding, δ receptor; cited from earlier work
Chain of cloned human δ opioid receptor (P41143 whole entry): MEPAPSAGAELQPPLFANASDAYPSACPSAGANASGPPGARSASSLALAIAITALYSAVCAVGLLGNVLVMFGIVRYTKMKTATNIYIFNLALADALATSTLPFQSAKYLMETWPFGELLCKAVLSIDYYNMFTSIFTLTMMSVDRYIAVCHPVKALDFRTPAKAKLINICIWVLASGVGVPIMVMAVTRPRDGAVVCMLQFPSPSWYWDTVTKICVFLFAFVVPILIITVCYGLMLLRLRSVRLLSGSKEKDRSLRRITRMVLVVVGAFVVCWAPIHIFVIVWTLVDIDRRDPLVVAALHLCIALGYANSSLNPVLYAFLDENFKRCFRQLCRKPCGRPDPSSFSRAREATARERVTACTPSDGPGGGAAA

T1 sequence (P35372 whole entry): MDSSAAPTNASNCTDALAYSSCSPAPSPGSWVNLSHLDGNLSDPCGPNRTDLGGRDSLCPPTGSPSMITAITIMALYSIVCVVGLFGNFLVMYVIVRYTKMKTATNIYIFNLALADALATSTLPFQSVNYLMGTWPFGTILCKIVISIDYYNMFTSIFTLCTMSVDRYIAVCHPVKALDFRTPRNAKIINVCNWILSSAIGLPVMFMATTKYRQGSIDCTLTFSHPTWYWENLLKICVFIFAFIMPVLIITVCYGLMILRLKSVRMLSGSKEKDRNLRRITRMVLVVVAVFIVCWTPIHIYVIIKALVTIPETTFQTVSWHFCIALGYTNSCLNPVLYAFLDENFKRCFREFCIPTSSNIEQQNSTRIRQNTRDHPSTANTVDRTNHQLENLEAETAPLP
Chain of cloned human κ opioid receptor (P41145 whole entry): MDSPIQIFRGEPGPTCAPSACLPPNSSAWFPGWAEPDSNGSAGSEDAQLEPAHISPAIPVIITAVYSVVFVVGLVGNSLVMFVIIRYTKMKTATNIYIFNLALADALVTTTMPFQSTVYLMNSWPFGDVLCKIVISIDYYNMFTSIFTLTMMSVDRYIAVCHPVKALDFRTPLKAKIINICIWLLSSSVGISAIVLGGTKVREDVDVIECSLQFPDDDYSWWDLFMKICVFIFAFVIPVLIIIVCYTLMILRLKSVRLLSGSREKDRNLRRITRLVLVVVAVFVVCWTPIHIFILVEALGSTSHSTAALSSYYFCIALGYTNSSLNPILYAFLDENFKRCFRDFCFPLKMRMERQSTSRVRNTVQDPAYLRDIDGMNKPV

Row | SMILES | Ki [1] [nM] | Ki [2] [nM] | Ki [3] [nM]
1 | C[C@H]1C2CCC[C@]1(c1cccc(O)c1)CCN2C[C@H](Cc1ccccc1)C(=O)NCC(=O)O [Example 2, {2S-Benzyl-3-[5-(3-hydroxy-phenyl)-9-methyl-2-aza-bicyclo[3.3.1]non-2-yl]-propionylamino}-acetic acid] | 1.5 |  | 
2 | C[C@H]1CN(C[C@H](Cc2ccccc2)C(=O)NCC(=O)O)CC[C@@]1(C)c1cccc(O)c1 [Alvimopan] |  | 92 | 10
